Laboratory results published in patent publication US10065927B2, “α-ketoacylic isoniazid compounds, process for producing said compounds, use of the compounds in the treatment of tuberculosis” (priority 2015, dated 2018).
≈ marks a conversion by molar mass, not a printed value.

Tested on: M. tuberculosis isoniazid resistant strain
Assay: microbe, parasite or virus in culture
Assay type: cell-based
Conditions: Mycobacterium tuberculosis

Structure (SMILES): CC(=O)Nc1ccccc1C(=O)C(=O)NNC(=O)c1ccncc1 [Compound 2, N-(2-(2-(2-Isonicotinoylhydrazine)-2-Oxoacetyl)Phenyl) Acetamide]
- MIC: 19.2 µM (≈ 6.26 µg/mL)

Structure (SMILES): NNC(=O)c1ccncc1 [Isoniazid]
- MIC: > 73 µM
